This is an account of results in patent US8957056B2, “Migrastatin analogs in the treatment of cancer” (Sloan-Kettering Instiute for Cancer Research, priority 2004, dated 2015).

Like-named read-outs stand apart in the source and are kept apart here.

The conditions of series [1]: rcm bond, toluene, 0.25 h.
Series [2] deals with mouse breast tumor cells (4T1 cells). The series can be described thus: Boyden chamber cell migration assay, 4T1. Format: cell-based. To be noted: for inhibitory activity on tumor cell migration: 4T1 chamber assay; for IC50: 4T1 tumor cells, 6-8 hours, read-out: IC50 value, chamber cell migration assay.
The test system is the same in series [3]. To be noted: chamber assay with mouse breast tumor cells; reported in WO 2004/087672; cited from earlier work.
Series [4] in a line: Mouse blood plasma stability. Here is the method: The biological evaluation of the compounds (in terms of their ability to inhibit cell migration) was accomplished in a Boyden chamber cell migration assay. In this assay, mouse breast tumor cells (4T1 cells) or endothelial cells (HUVECs) are seeded on the upper chamber of a transwell insert. Growth factor-containing serum is added to the lower chamber.
In anticipation of subsequent in vivo evaluation of these compounds and others, preliminary metabolic stability studies were carried out. […] As a test of the ‘deactivation hypothesis’, the hydrolysis product of macrolactone 48 was prepared (Scheme 27) and tested for its activity against tumor cell migration.

Series [5] has as its system adherent cells (e.g. KYSE-520 cells). The series can be described thus: Wound healing (scratch) assay, preliminary (Table 2). The format is cell-based. To be noted: 28 to 30 h, tested concentrations 200, 100, 50, 25, 10 μM. The protocol:
The wound healing assay was performed based on the method described by Nakae et al. (Nakae et al., J. Antibiotics (2000), 53, 1130-1136). Briefly, adherent cells were grown in a suitable media to confluence (e.g. KYSE-520 cells in RPMI-1640 with 10% FBS). Cells were starved for 24 h in serum free media A scratch (ca. 0.5 mm) was applied and the cell layer was washed twice with PBS after removal of the media. Fresh, serum free media with the test compound at the desired concentration was added and the cells were incubated for 28 to 30 h at 37° C., 5% CO2. The scratch size was compared to that observed for cells exposed to 100 μM Migrastatin. Test compounds associated with a scratch size equal to or larger than that observed for cells exposed to 100 μM Migrastatin were deemed to have cell migration inhibitory activity at least equal to Migrastatin.

A further series has as its system HUVEC. Put plainly: Tube formation assay. The format is cell-based, human. To be noted: HUVEC on matrigel, 16-18 h, tested concentrations 200, 100, 50, 25, 10 μM. The protocol: A protocol was designed based on the instructions from the provider (BD Bioscience, San Jose, Calif.). Briefly, wells of a 48 well culture dish were covert with 150 μL matrigel and the matrigel was gelatinized for 30 min at 37° C. A 80-90% confluent HUVEC (BD Bioscience, San Jose, Calif.) culture was trypsin treated, the detached cells were collected by centrifugation and resuspended in EGM-2 media (BD Bioscience, San Jose, Calif.). Cell concentration was adjusted to 100.000 cells/mL. 400 μL of the cell suspension were filled in the matrigel coated wells, and a solution of the inhibitor was added to the intended final concentration. The plates were incubated at 37° C. with 5% CO2 for 16-18 h. Media was removed, and the matrigel surface was washed twice with 500 μL PBS before cells were labeled with 250 μL 8 μM Calcein AM (Pierce, Rockford, Ill.) in PBS for 30 min at 37° C. After two additional washing steps (500 μL PBS) cells were visualized under an inverted microscope. Fluorescence was excited at 488 nm and recorded at 538 nm. The minimum effect concentration was defined as the minimal inhibitor concentration that caused a definite disturbance of the complexity of the formed tube network.

`CO[C@H]1C=CCCCCC(=O)NC/C(C)=C\[C@@H](C)[C@@H]1O[Si](C)(C)C(C)(C)C` displayed a ring closure, yield of all isomers in series [1] (from C=CCCCCC(=O)NC/C(C)=C\[C@@H](C)[C@H](O[Si](C)(C)C(C)(C)C)[C@H](C=C)OC, Grubbs II, 0.709 mM, 111.0 °C) of 60%.

In series [1] (from C=CCCCCC(=O)O[C@@H](/C(C)=C\[C@@H](C)[C@H](O[Si](C)(C)C(C)(C)C)[C@H](C=C)OC)[C@H](C)C(=O)CCCC1CC(=O)NC(=O)C1, Grubbs II, 0.48 mM, 111.0 °C), `CO[C@H]1C=CCCCCC(=O)O[C@H]([C@H](C)C(=O)CCCC2CC(=O)NC(=O)C2)/C(C)=C\[C@@H](C)[C@@H]1O[Si](C)(C)C(C)(C)C` showed a ring closure, yield of all isomers of 79%.

`CO[C@H]1/C=C/CCCCC(=O)OC/C(C)=C\[C@@H](C)[C@@H]1OC(C)=O` [Compound 49, Acetylated Macrolactone]: in series [2], the “inhibitory activity on tumor cell migration” value (“inhibitory activity” below) is listed as “reduced by roughly an order of magnitude”.

On to `CO[C@H]1C=CCC/C=C/C(=O)OC/C(C)=C\[C@@H](C)[C@@H]1O[Si](C)(C)C(C)(C)C`, for which, in series [1] (from C=CCC/C=C/C(=O)OC/C(C)=C\[C@@H](C)[C@H](O[Si](C)(C)C(C)(C)C)[C@H](C=C)OC, Grubbs II, 0.664 mM, 111.0 °C), the ring closure, yield of all isomers worked out at 55%.

Turning to `CO[C@H]1/C=C/CCCCC(=NO)CC/C(C)=C\[C@@H](C)[C@@H]1O` [Compound 72, Macrooxime], the “ability to inhibit tumor cell migration” value in series [3] is listed as “rather weak migration inhibitors”.

For `CO[C@H]1/C=C/CCCCC(O)CC/C(C)=C\[C@@H](C)[C@@H]1O` (stereo partly shown) [Compound 69, Macrocyclic Secondary Alcohol], in series [3], the “ability to inhibit tumor cell migration” value was “rather weak migration inhibitors”.

On to `CO[C@H]1/C=C/CCCCC(=O)OC/C(C)=C\[C@@H](C)C1=O` [Compound 50, Oxidized Macrolactone], for which the “inhibitory activity” value in series [2] was “reduced by roughly an order of magnitude”.

As for `CO[C@H]1/C=C/CCCCC(O)(C(F)(F)F)CC/C(C)=C\[C@@H](C)[C@@H]1O` (stereo partly shown) [Compound 71, Macrocyclic CF3-Alcohol], the “ability to inhibit tumor cell migration” value in series [3] is recorded as “displays the same activity profile as macroketone 60”.

As for `COC1C=CCCCCC(=O)OC(C(C)C(=O)CCCC2CC(=O)NC(=O)C2)C(C)=CC(C)C1O` (stereo not shown) [Compound 41, 2,3-Dihydromigrastatin], in series [4] (mouse, plasma), the “metabolic stability in mouse blood plasma” value (from here on “metabolic stability”) is “completely inert toward lactone opening”. The Minimum effect concentration is 25 µM in series [5] and 50 µM in the series on HUVEC. In addition, the IC50 in series [2] came to 10 µM.

In the case of `COC1C=CCCCCC(=O)OC(C(C)C)C(C)=CC(C)C1O` [Compound 65, (S)-Isopropyl Macrolactone], the “metabolic stability” value in series [4] (mouse, plasma) is “no sign of degradation”. For the same compound, the “inhibitory activity” value in series [2] is given as “only very weak effects on tumor cell migration”.

For `COC1C=CCCCCC(=O)OC(C(C)C(=O)CCCC2CC(=O)N(C)C(=O)C2)C(C)=CC(C)C1O` (stereo not shown) [Compound 42, N-Methyl-2,3-Dihydromigrastatin], the “metabolic stability” value in series [4] (mouse, plasma) was “completely inert toward lactone opening”. In series [2], the IC50 amounted to 7 µM.

`CO[C@H]1C=CCCCCC(=O)CC/C(C)=C\[C@@H](C)[C@@H]1O[Si](C)(C)C(C)(C)C` yielded a ring closure, yield of all isomers in series [1] (from C=CCCCCC(=O)CC/C(C)=C\[C@@H](C)[C@H](O[Si](C)(C)C(C)(C)C)[C@H](C=C)OC, Grubbs-II catalyst, 0.508 mM, 110.0 °C) of 81%.

On to `COC1C=CCCC=CC(=O)OC(C(C)C(=O)CCCC2CC(=O)N(C)C(=O)C2)C(C)=CC(C)C1O` (stereo not shown) [N-Methyl-migrastatin], for which the values for the Minimum effect concentration (in series [5]; in the series with HUVEC) were 100 µM and 200 µM, respectively.

`CO[C@H]1/C=C/CCCCC(C)(O)CC/C(C)=C\[C@@H](C)[C@@H]1O` (stereo partly shown) [Compound 70, Macrocyclic Tertiary Alcohol]: the “ability to inhibit tumor cell migration” value in series [3] is “rather weak migration inhibitors”.

Take `CO[C@@H](/C=C/CCCCC(=O)O)[C@@H](O)[C@H](C)/C=C(/C)CO` [Compound 51, Hydrolyzed Core]: the IC50 in series [2] (Mus musculus) came to 0.378 µM.

In the case of `CO[C@H]1/C=C/CC/C=C/C(=O)OC/C(C)=C\[C@@H](C)[C@@H]1O` [Compound 45, Migrastatin Core], the “metabolic stability” value in series [4] (test period one hour) is reported as “hydrolyzed rapidly”. The Minimum effect concentration in the series on HUVEC was determined as 10 µM.

As for `COC1C=CCCCCC(=O)OC(C(C)C)C(C)=CC(C)C1O` [Compound 68, (R)-Isopropyl Macrolactone], the “metabolic stability” value in series [4] (mouse, plasma) was “no sign of degradation”. Also, in series [2], the “inhibitory activity” value is reported as “only very weak effects on tumor cell migration”.

In turn, `CO[C@H]1C=CCCCCC(=O)OC/C(C)=C\[C@@H](C)[C@@H]1O[Si](C)(C)C(C)(C)C` came in with a ring closure, yield of all isomers in series [1] (from C=CCCCCC(=O)OC/C(C)=C\[C@@H](C)[C@H](O[Si](C)(C)C(C)(C)C)[C@H](C=C)OC, Grubbs II, 0.498 mM, 111.0 °C) of 76%.

In series [1] (from C=CCC/C=C/C(=O)O[C@@H](/C(C)=C\[C@@H](C)[C@H](O[Si](C)(C)C(C)(C)C)[C@H](C=C)OC)[C@H](C)C(=O)CCCC1CC(=O)NC(=O)C1, Grubbs II, 0.46 mM, 111.0 °C), `CO[C@H]1C=CCC/C=C/C(=O)O[C@H]([C@H](C)C(=O)CCCC2CC(=O)NC(=O)C2)/C(C)=C\[C@@H](C)[C@@H]1O[Si](C)(C)C(C)(C)C` returned a ring closure, yield of all isomers of 69%.

`CO[C@H]1C=CCCCCC(=O)O[C@@H](C(C)C)/C(C)=C\[C@@H](C)[C@@H]1O` yielded a ring closure, yield of all isomers in series [1] (from C=CCCCCC(=O)O[C@H](/C(C)=C\[C@@H](C)[C@H](O[Si](C)(C)C(C)(C)C)[C@H](C=C)OC)C(C)C, Grubbs-II catalyst, 0.53 mM, 110.0 °C, 2 steps) of 65%.
